In US20260053773A1, “PHARMACEUTICAL COMPOSITION AND USE THEREOF” (AUHUI TONGOO PHARMACEUTICAL TECHNOLOGY CO., LTD., priority 2022, published 2026):
“And” between values parts separate entries of the source, which are not always exact repeats. Identical values can stand only once.

Test system: human proximal tubule cells (HK-2)
Experiment: Lactate dehydrogenase (LDH) release from HK-2 cells exposed to COM crystals
Assay type: cell-based
Conditions: 200 μM CA, 20 μM GaA
Source text: (§1) Studies have shown that reducing calcium oxalate crystallization, crystal-cell interactions, and cellular damage can prevent stone formation to some extent.
Lactate dehydrogenase (LDH) is a cytoplasmic enzyme released into the extracellular space when the cell membrane ruptures, so the amount of LDH released can be used as a sign of cell membrane integrity.

Structure (SMILES) | LDH release compared with the control group
O=C(O)CC(O)(CC(=O)O)C(=O)O [CA, citric acid] | 195.17%

Test system: not listed separately
Experiment: Inhibition of COM crystal growth in three growth directions, inhibitors alone and in combination pairs
Conditions: [001] direction; inhibitor alone
Description: Different concentrations of citric acid (CA) and ellagic acid (EA) were added to 25 ml of deionized water, the supersaturation of the solution was controlled at S=2.4, and the growth process of the crystal was monitored.
The hollow symbols in the figure represent the concentration required for a single inhibitor to achieve a certain effect, and the same solid symbols represent the concentration required for a combination of the inhibitors to achieve the same effect.
Different concentrations of citric acid (CA) and gallic acid (GaA) were added to 25 ml of deionized water, and the growth process of the crystal was monitored.
Different concentrations of citric acid (CA) and pyrogallol (PGA) were added to 25 ml of deionized water, and the growth process of the crystal was monitored.
Different concentrations of citric acid (CA) and protocatechuic acid (PrA) were added to 25 ml of deionized water, and the growth process of the crystal was monitored.
Comparative Example 1 differed from Example 1 merely in that ellagic acid was replaced with albumin, and the other preparation methods were the same as those in Example 1.
Comparative Example 2 differed from Example 1 merely in that ellagic acid was replaced with o-hydroxybenzoic acid, and the other preparation methods were the same as those in Example 1.
Different concentrations of hydroxycitric acid (HCA) and ellagic acid (EA) were added to 25 ml of deionized water, supersaturation of the solution was controlled at S=2.4, and the growth process of the crystal was monitored.
Different concentrations of hydroxycitric acid (HCA) and gallic acid (GaA) were added to 25 ml of deionized water, and the growth process of the crystal was monitored.
Different concentrations of potassium citrate (KCA) and ellagic acid (EA) were added to 25 ml of deionized water, the supersaturation of the solution was controlled at S=2.4, and the growth process of the crystal was monitored.
Different concentrations of potassium citrate (KCA) and gallic acid (GaA) were added to 25 ml of deionized water, and the growth process of the crystal was monitored.

Structure (SMILES) | concentration of the single inhibitor achieving 10% inhibition of crystal growth | concentration of the single inhibitor achieving 30% inhibition of crystal growth | concentration of the single inhibitor achieving 70% inhibition of crystal growth
O=C(O)CC(O)(CC(=O)O)C(=O)O [CA, citric acid] | 10.8 µM | 36.9 µM | 125.4 µM
O=c1oc2c(O)c(O)cc3c(=O)oc4c(O)c(O)cc1c4c23 [EA, ellagic acid] | 0.0084 µM and 0.0104 µM and 0.0105 µM | 0.0386 µM and 0.0309 µM and 0.0385 µM | 0.1322 µM and 0.1041 µM and 0.1312 µM
O=C(O)c1cc(O)c(O)c(O)c1 [GaA, gallic acid] | 0.3716 µM and 0.4677 µM and 0.4678 µM | 1.5906 µM and 1.2801 µM and 1.5900 µM | 5.3799 µM and 4.3049 µM and 5.3797 µM

Same assay, conditions: [001] direction; inhibitor alone; read-out: concentration of the single inhibitor achieving 50% inhibition of crystal growth

Structure (SMILES) | IC50
O=C(O)CC(O)(CC(=O)O)C(=O)O [CA, citric acid] | 71000 nM
O=c1oc2c(O)c(O)cc3c(=O)oc4c(O)c(O)cc1c4c23 [EA, ellagic acid] | 76.1 nM and 60.9 nM and 76.3 nM
O=C(O)c1cc(O)c(O)c(O)c1 [GaA, gallic acid] | 3100 nM and 2400 nM

Same assay, conditions: [021] direction; inhibitor alone

Structure (SMILES) | concentration of the single inhibitor achieving 10% inhibition of crystal growth | concentration of the single inhibitor achieving 30% inhibition of crystal growth | concentration of the single inhibitor achieving 70% inhibition of crystal growth
O=C(O)CC(O)(CC(=O)O)C(=O)O [CA, citric acid] | 12.1 µM | 40.9 µM | 138 µM
O=c1oc2c(O)c(O)cc3c(=O)oc4c(O)c(O)cc1c4c23 [EA, ellagic acid] | 0.0117 µM and 0.0094 µM and 0.0116 µM | 0.0398 µM and 0.0320 µM and 0.0399 µM | 0.1369 µM and 0.1095 µM and 0.1358 µM
O=C(O)c1cc(O)c(O)c(O)c1 [GaA, gallic acid] | 0.3743 µM and 0.2994 µM and 0.3744 µM | 1.2912 µM and 1.0221 µM and 1.2910 µM | 4.3601 µM and 3.4880 µM and 4.3600 µM

Same assay, conditions: [021] direction; inhibitor alone; read-out: concentration of the single inhibitor achieving 50% inhibition of crystal growth

Structure (SMILES) | IC50
O=C(O)CC(O)(CC(=O)O)C(=O)O [CA, citric acid] | 79500 nM
O=c1oc2c(O)c(O)cc3c(=O)oc4c(O)c(O)cc1c4c23 [EA, ellagic acid] | 77.2 nM and 56 nM and 77.1 nM
O=C(O)c1cc(O)c(O)c(O)c1 [GaA, gallic acid] | 2510 nM and 1800 nM

Same assay, conditions: [121] direction; inhibitor alone

Structure (SMILES) | concentration of the single inhibitor achieving 10% inhibition of crystal growth | concentration of the single inhibitor achieving 30% inhibition of crystal growth | concentration of the single inhibitor achieving 70% inhibition of crystal growth
O=C(O)CC(O)(CC(=O)O)C(=O)O [CA, citric acid] | 13.5 µM | 45.8 µM | 155 µM
O=c1oc2c(O)c(O)cc3c(=O)oc4c(O)c(O)cc1c4c23 [EA, ellagic acid] | 0.0164 µM and 0.0131 µM and 0.0165 µM | 0.0562 µM and 0.0449 µM and 0.0561 µM | 0.1884 µM and 0.1500 µM and 0.1879 µM
O=C(O)c1cc(O)c(O)c(O)c1 [GaA, gallic acid] | 0.4959 µM and 0.3967 µM | 1.6841 µM and 1.3473 µM and 1.6842 µM | 5.6887 µM and 4.5510 µM and 5.6881 µM

Same assay, conditions: [121] direction; inhibitor alone; read-out: concentration of the single inhibitor achieving 50% inhibition of crystal growth

Structure (SMILES) | IC50
O=C(O)CC(O)(CC(=O)O)C(=O)O [CA, citric acid] | 89000 nM
O=c1oc2c(O)c(O)cc3c(=O)oc4c(O)c(O)cc1c4c23 [EA, ellagic acid] | 110 nM and 88.8 nM
O=C(O)c1cc(O)c(O)c(O)c1 [GaA, gallic acid] | 3270 nM and 2620 nM

Test system: not given
Experiment: not given
Conditions: related studies; cited from earlier work

Structure (SMILES) | inhibitory effect on calcium oxalate crystallization
O=C(O)CC(O)(CC(=O)O)C(=O)O [CA, citric acid] | 60%

Test system: human proximal tubule cells (HK-2)
Experiment: Cell death/survival of HK-2 cells exposed to COM crystals
Assay type: cell-based
Conditions: HK-2 cells exposed to COM crystals 24 hours; CA 200 μM
Description: Studies have shown that reducing calcium oxalate crystallization, crystal-cell interactions, and cellular damage can prevent stone formation to some extent. On this basis, the present example further verified the combined effect of the pharmaceutical composition of citric acid (200 μM) and polyphenol molecules (20 μM GaA, 20 μM EA, 40 μM PGA, 200 µM PrA) in reducing cellular damage and crystal adhesion.
In order to explore the combined effects of the pharmaceutical composition on reducing crystal toxicity to cells, an in vitro model of direct exposure to COM crystals was selected in the present example to detect short-term cellular damage. In a culture medium environment with or without inhibitors, mature human proximal tubule cells (HK-2) were exposed to COM crystal suspension medium for the indicated times. […] However, in the presence of CA, the amount of cell death was reduced by 50% (FIG. 6).

Structure (SMILES) | reduction of the amount of cell death
O=C(O)CC(O)(CC(=O)O)C(=O)O [CA, citric acid] | 50%

Same assay, conditions: polyphenol (20 μM GaA, 20 μM EA, 40 μM PGA, 200 μM PrA) combined with citric acid 200 μM

Structure (SMILES) | synergistic enhancement order in improving cell activity
O=c1oc2c(O)c(O)cc3c(=O)oc4c(O)c(O)cc1c4c23 [EA, ellagic acid] | GaA>PcA>PGA>EA
O=C(O)c1cc(O)c(O)c(O)c1 [GaA, gallic acid] | GaA>PcA>PGA>EA

Test system: HK-2 cells
Experiment: Adhesion of COM crystals to HK-2 cells in vitro
Assay type: cell-based
Conditions: Homo sapiens, 200 μM CA alone, compared with the blank group without inhibitor, read-out: inhibitory effect on COM crystal adhesion
Source text: as §1

Structure (SMILES) | inhibition at 200 µM
O=C(O)CC(O)(CC(=O)O)C(=O)O [CA, citric acid] | 30%
